Assays:
Assay in all cases: greenhouse pre-emergence herbicidal test
Format in all cases: in vivo
Apera spica-venti = test system: Apera spica-venti
From the text: (§1) The culture containers used were plastic flowerpots containing loamy sand with approximately 3.0% of humus as the substrate. The seeds of the test plants were sown separately for each species.
(§2) For the pre-emergence treatment, the active ingredients, which had been suspended or emulsified in water, were applied directly after sowing by means of finely distributing nozzles.
(§3) The containers were irrigated gently to promote germination and growth and subsequently covered with transparent plastic hoods until the plants had rooted. This cover caused uniform germination of the test plants, unless this had been impaired by the active ingredients.
(§4) Depending on the species, the plants were kept at 10-25° C. or 20-35° C., respectively.
(§5) The test period extended over 2 to 4 weeks. During this time, the plants were tended, and their response to the individual treatments was evaluated.
(§6) Evaluation was carried out using a scale from 0 to 100. 100 means no emergence of the plants, or complete destruction of at least the aerial moieties, and 0 means no damage, or normal course of growth. A moderate herbicidal activity is given at values of at least 60, a good herbicidal activity is given at values of at least 70, and a very good herbicidal activity is given at values of at least 85.
(§7) The plants used in the greenhouse experiments were of the following species: […]

Abutilon theophrasti = test system: Abutilon theophrasti
From the text: as §1, §2, §3, §4, §5, §6, §7

Echinocloa crus-galli = test system: Echinocloa crus-galli
From the text: (§8) The seeds of the test plants were sown separately for each species. For the pre-emergence treatment, the active ingredients, which had been suspended or emulsified in water, were applied directly after sowing by means of finely distributing nozzles. The containers were irrigated gently to promote germination and growth and subsequently covered with transparent plastic hoods until the plants had rooted. This cover caused uniform germination of the test plants, unless this had been impaired by the active ingredients. […] The test period extended over 2 to 4 weeks. During this time, the plants were tended, and their response to the individual treatments was evaluated. Evaluation was carried out using a scale from 0 to 100. 100 means no emergence of the plants, or complete destruction of at least the aerial moieties, and 0 means no damage, or normal course of growth. A moderate herbicidal activity is given at values of at least 60, a good herbicidal activity is given at values of at least 70, and a very good herbicidal activity is given at values of at least 85. The plants used in the greenhouse experiments were of the following species: [table]

Amaranthus retroflexus = test system: Amaranthus retroflexus
From the text: as §8

Setaria faberi = test system: Setaria faberi
From the text: as §8

Lolium multiflorum = settings: 62 g/ha
From the text: as §1, §2, §3, §4, §5, §6, §7

Alopercurus myosuroides = test system: Alopercurus myosuroides
From the text: as §1, §2, §3, §4, §5, §6, §7

| SMILES | herbicidal activity (Setaria faberi; 31 g/ha) [%] | herbicidal activity (Abutilon theophrasti; 62.5 g/ha) [%] | herbicidal activity (Echinocloa crus-galli; 62.5 g/ha) [%] | herbicidal activity (Amaranthus retroflexus; 62.5 g/ha) [%] | herbicidal activity (Lolium multiflorum) [%] | herbicidal activity (Abutilon theophrasti; 62 g/ha) [%] | herbicidal activity (Setaria faberi; 62 g/ha) [%] | herbicidal activity (Setaria faberi; 62.5 g/ha) [%] | herbicidal activity (Amaranthus retroflexus; 62 g/ha) [%] | herbicidal activity (Echinocloa crus-galli; 62 g/ha) [%] | further results |
| --- | --- | --- | --- | --- | --- | --- | --- | --- | --- | --- | --- |
| C#CCOc1c(Br)cc(F)c(Cl)c1Nc1nc(N)nc(C(C)(C)F)n1 [Example 31] | 100 |  |  |  |  |  |  |  |  |  | herbicidal activity (Apera spica-venti; 31 g/ha): 100%; herbicidal activity (Abutilon theophrasti; 31 g/ha): 100%; herbicidal activity (Abutilon theophrasti; 250 g/ha): 100%; herbicidal activity (Echinocloa crus-galli; 250 g/ha): 100%; herbicidal activity (Amaranthus retroflexus; 250 g/ha): 100% |
| COc1c(Cl)cc(Cl)c(C)c1Nc1nc(N)nc(C(C)F)n1 (stereo not drawn) [Example 35] |  | 100 | 100 | 100 |  |  |  |  |  |  | herbicidal activity (Apera spica-venti; 125 g/ha): 100%; herbicidal activity (Abutilon theophrasti; 125 g/ha): 95%; herbicidal activity (Amaranthus retroflexus; 125 g/ha): 100% |
| COc1c(Cl)cc(Cl)c(C)c1Nc1nc(N)nc(C2(F)CCCC2)n1 [Example 36] |  | 100 | 100 | 100 |  |  |  |  |  |  | herbicidal activity (Apera spica-venti; 125 g/ha): 100%; herbicidal activity (Echinocloa crus-galli; 125 g/ha): 85%; herbicidal activity (Setaria faberi; 125 g/ha): 90% |
| COc1c(Cl)cc(Cl)c(C)c1Nc1nc(N)nc(C(C)(C)OC)n1 [Example 37] |  | 98 | 100 | 100 |  |  |  |  |  |  | herbicidal activity (Apera spica-venti; 125 g/ha): 100%; herbicidal activity (Abutilon theophrasti; 125 g/ha): 85%; herbicidal activity (Setaria faberi; 125 g/ha): 85% |
| COc1c(Br)cc(C)c(C)c1Nc1nc(N)nc(C(C)(C)F)n1 [Example 45] |  |  | 100 | 100 | 100 | 100 | 100 | 100 |  |  |  |
| COc1c(Br)cc(C)c(C)c1Nc1nc(N)nc(C(C)F)n1 (stereo not drawn) [Example 46] |  |  | 100 | 100 | 80 |  | 100 | 100 | 100 |  |  |
| COc1c(Br)cc(C)c(C)c1Nc1nc(N)nc(C2(F)CCCC2)n1 [Example 47] |  |  | 100 | 100 | 80 |  | 90 | 100 |  |  |  |
| COc1c(Br)cc(C)c(C)c1Nc1nc(N)nc(C(C)(C)OC)n1 [Example 48] | 100 |  |  |  | 98 |  | 80 |  |  | 90 | herbicidal activity (Echinocloa crus-galli; 31 g/ha): 70%; herbicidal activity (Amaranthus retroflexus; 31 g/ha): 100% |
| CC(C)(F)c1nc(N)nc(Nc2c(Cl)ccc(F)c2OCC#CC2CC2)n1 [Example 52] |  |  | 100 |  |  | 100 |  | 100 | 100 | 100 | herbicidal activity (Apera spica-venti; 62.5 g/ha): 100% |
| COc1c(Cl)cc(Br)c(C)c1Nc1nc(N)nc(C(C)(C)F)n1 [Example 60] | 98 |  |  |  |  | 100 | 100 |  | 100 |  | herbicidal activity (Apera spica-venti; 31 g/ha): 95%; herbicidal activity (Amaranthus retroflexus; 31 g/ha): 100% |
| COc1c(Cl)cc(C)c(Cl)c1Nc1nc(N)nc(C(C)(C)F)n1 [Example 63] | 100 |  |  |  |  | 100 |  |  | 100 | 100 | herbicidal activity (Alopercurus myosuroides; 31 g/ha): 80%; herbicidal activity (Amaranthus retroflexus; 31 g/ha): 80% |
| C#CCOc1c(Cl)cc(C)c(Cl)c1Nc1nc(N)nc(C(C)(C)F)n1 [Example 64] |  |  |  |  | 98 | 100 | 100 |  |  | 100 |  |
| COc1c(Cl)cc(F)c(C)c1Nc1nc(N)nc(C2(F)CC2)n1 [Example 92] |  | 100 | 100 |  |  |  | 100 |  | 100 | 100 | herbicidal activity (Alopercurus myosuroides; 62.5 g/ha): 100% |
